Results: paper PMC10141604, “Small-Molecule Inhibition of Androgen Receptor Dimerization as a Strategy against Prostate Cancer” (ACS Central Science, 2023)

Columns and labels:
[1] = system: LNCaP cell line; assay: Cell cycle and apoptosis of LNCaP cells (flow cytometry); format: cell-based
Experimental: calculating volume (V= 0.5 × L × W2). Finally, the mice were sacrificed and the tumors were harvested for hematoxylin and eosin (H&E) staining.
Luciferase Reporter Assays for PR, GR, and MR
PC3, HeLa, and HEK293T cells were cultured using 5% CSS RPMI-1640, 5% CSS RPMI-1640 and 10% FBS DMEM media in 96-well plates for 24 h, respectively. For PR induction, PC3 (1 × 10^4 cells/well) were transfected with 50 ng pcDNA3-PRB (#89130, Addgene), 24 ng pGL4.36[luc2P MMTV Hygro] (Promega) and 5 ng Renilla using HG-TransGeneTM transfection reagent (#TG-10012, Genomeditech) for 4 h. […] The luciferase activities were assessed using the Dual-Glo Luciferase system (#E1910, Promega). […]
Cell cycle were determined after 48 h incubation by Cell Cycle Staining Kit (#CCS012, MULTI SCIENCES) using […]
Cytomic FC 500MCL flow cytometer (Beckman Coulter, Inc). Cell apoptosis were determined after 24 h incubation by Annexin V-FITC/PI apoptosis kit (#AP101, MULTI SCIENCES) using BD FACS S ORP ARIA II flow cytometer (BD Biosciences).
Graphpad Prism (v.8.4) program was adopted for statistical analysis and data were presented as the mean ± standard error of mean (SEM). The value of p was determined on the basis of at least three independent assays using Student’s t-test, one-way ANOVA or two-way ANOVA analysis.

[2] = system: U2OS, MCF-7, HepG2, HL60, H1299, A549, SW480, U87, Hela cell lines; assay: MTT cell viability assay, various human cancer cell lines; format: cell-based; conditions: concentration as high as 50 μM; Enz except U2OS, M17-B15 except A549
Experimental: (§1) 3-(4,5-dimethythiazol-2-yl)-2,5-diphenyl-2-H-tetrazolium bromide (MTT) colorimetric assay was employed to investigate cell viability. Cells were seeded into 96-well plates with 2-5× 10^3 cells per well (5× 10^3 cells/well for LNCaP, 22RV1, NIH-3T3, GES-1, Chang, […]
(§2) NCI-H1299, U2OS, U87) for 1 day incubation at 37 °C. Then, the cells were treated with various concentrations of compounds (22.86 nM - 50 μM) and incubated for 72 h. Then, 10 μl MTT (5 mg/ml) was added into each well and incubated for 4 h. Afterwards, 100 μl of triplex 10% SDS-0.1% HCl-phosophate-buffered saline (PBS) solutions was added into each well and incubated for overnight. The absorbance at 570 nm was measured (Eon, Bioteck, Winooski, VT). […]

[3] = system: LNCaP cells; assay: Clonogenic (colony forming) assay, LNCaP; format: cell-based; conditions: 2 and 20 μM, 16-18 days
Experimental: 1.5× 10^3 cells/well of LNCaP or 22RV1 were seeded into a 6-well plate. After 1 day
incubation, the medium of each well was removed and washed thrice using PBS. […]

[4] = system: NIH-3T3; assay: MTT cell viability assay, NIH-3T3; format: cell-based, murine; conditions: 72 h
Experimental: as §1, §2

[5] = system: human liver cells (Chang); assay: MTT cell viability assay, Chang; format: cell-based; conditions: 72 h
Experimental: as §1, §2

[6] = system: subcutaneous xenografts of LNCaP cells; assay: LNCaP mouse xenograft study, intratumor injection; format: in vivo; conditions: 2.5 mg/kg/week; for tumor growth inhibition (TGI): LNCaP xenograft in CB17 SCID mice; for tumor volume and weight: versus vehicle
Experimental: The animal protocols were in accordance with the guidelines of the Animal Welfare Council of China, and were performed by KCBIO company (Chengdu, China). All animal use and studies were performed in compliance with all relevant ethical regulations, and were approved by the Institutional Animal Care and Use Committee (IACUC) at Kangcheng Biotechnology Co., Ltd, Sichuan, China (IACUC-202010-m-001). In brief, male CB17 SCID mice (6-8 weeks old) were housed at a constant room temperature and fed a standard rodent diet and allowed free access to water. LNCaP cells (1 × 107) suspended in 0.1 ml PBS were injected subcutaneously into the right flank of eac h CB17 SCID mice. Once tumor size reached an average tumor volume of 110 mm 3, the mice were randomized into three groups with 6 mice per group, and then intratumor injection […]
The tumor volumes were estimated by measuring length (L) and width (W) and […]
calculating volume (V= 0.5 × L × W2). Finally, the mice were sacrificed and the tumors were harvested for hematoxylin and eosin (H&E) staining. […]
Addgene), 24 ng pGL4.36[luc2P MMTV Hygro] […]
For the antagonistic models, 10 nM /well progesterone for PC3 cells , 1 nM/well dexamethasone for HeLa, and 5 nM/well aldosterone for HEK293T cells were added to stimulate the cells. Meanwhile, each cell line was treated with a series concentration of compounds (0.4, 2, and 10 μM). For the agonistic models, the cells were directly treated with the compounds without any hormones. […]
Luciferase system (#E1910, Promega).
Cell Cycle and Apoptosis for LNCaP cells […]
48 h incubation by Cell Cycle Staining Kit (#CCS012, MULTI SCIENCES) using […]

SMILES | impact on cell cycle and apoptosis [1] | cell viability inhibition of various human cancer cell lines [2] | colony formation of LNCaP cells [3] | cytotoxicity against NIH-3T3 [4] | cytotoxicity against Chang [5] | tumor growth inhibition (TGI) [6] [%] | tumor volume and weight [6]
CC(=O)Cc1nsc(NC(=O)c2cc(-c3cccc(C(F)(F)F)c3)oc2C)n1 [Compound M17-B15] | do not show an obvious impact | mild to moderate inhibitory effects | significant inhibitory activities | negligible cytotoxicity | negligible cytotoxicity | 83.59 | significantly inhibited
CNC(=O)c1ccc(N2C(=S)N(c3ccc(C#N)c(C(F)(F)F)c3)C(=O)C2(C)C)cc1F [Enz, enzalutamide, reference compound] | do not show an obvious impact | mild to moderate inhibitory effects | significant inhibitory activities | negligible cytotoxicity | negligible cytotoxicity | 51.35 | significantly inhibited
